PubChem BioAssay (NCI)
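Five concentrations, 48 hours, 96-well plates. TGI: concentration producing complete growth inhibition.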

Legend:
Experiment in all cases: growth of human tumour cells (NCI), 48 h
[1] = tested on: M14 melanoma
[2] = tested on: HOP-92 NSCLC
[3] = tested on: OVCAR-5 ovarian
[4] = tested on: T-47D breast
[5] = tested on: NCI/ADR-RES ovarian
[6] = tested on: BT-549 breast
[7] = tested on: ACHN renal
[8] = tested on: COLO 205 colon
[9] = tested on: PC-3 prostate
[10] = tested on: DU-145 prostate
[11] = tested on: MDA-MB-435
[12] = tested on: SF-295 CNS
[13] = tested on: MALME-3M melanoma
[14] = tested on: NCI-H522 lung
[15] = tested on: SF-268 CNS
[16] = tested on: OVCAR-8 ovarian
[17] = tested on: UO-31 renal
[18] = tested on: KM12 colon
[19] = tested on: SF-539 CNS
[20] = tested on: SW-620 colon
[21] = tested on: A498 renal
[22] = tested on: EKVX NSCLC
[23] = tested on: 786-0 renal
[24] = tested on: SNB-75 CNS
[25] = tested on: UACC-62 melanoma
[26] = tested on: SK-MEL-2 melanoma
[27] = tested on: MOLT-4 leukemia
[28] = tested on: SK-MEL-28 melanoma
[29] = tested on: SK-OV-3 ovarian
[30] = tested on: NCI-H460 lung
[31] = tested on: U251 CNS
[32] = tested on: HL-60(TB) leukemia
[33] = tested on: TK-10 renal
[34] = tested on: OVCAR-4 ovarian
[35] = tested on: HCT-116 colon
[36] = tested on: MDA-N
[37] = tested on: HCT-15 colon
[38] = tested on: SR leukemia
[39] = tested on: NCI-H23 lung
[40] = tested on: UACC-257 melanoma
[41] = tested on: NCI-H226 lung
[42] = tested on: MCF7 breast
[43] = tested on: OVCAR-3 ovarian
[44] = tested on: SNB-19 CNS
[45] = tested on: HCC-2998 colon
[46] = tested on: RXF 393 renal
[47] = tested on: K-562 leukemia
[48] = tested on: IGROV1 ovarian
[49] = tested on: A549 NSCLC
[50] = tested on: SN12C renal
[51] = tested on: HS 578T breast
[52] = tested on: RPMI-8226 leukemia
[53] = tested on: SK-MEL-5 melanoma
[54] = tested on: HT29 colon
[55] = tested on: HOP-62 NSCLC
[56] = tested on: CCRF-CEM leukemia

Measured: TGI

CCOc1ccc(NC(=O)/C(=N\NC(C)(C)C)C2C(=O)Nc3ccccc3S2=O)cc1 (stereo unspecified)
> 100 µM: all assays above
